{
  "source": "ChEMBL document CHEMBL1649121",
  "about": "“Giardia, Entamoeba, and Trichomonas enzymes activate metronidazole (nitroreductases) and inactivate metronidazole (nitroimidazole reductases)” (Antimicrob Agents Chemother, 2009)",
  "key": {"[1]": {"system": "Escherichia coli", "test": "Antimicrobial activity against Escherichia coli JM109 transformed with empty vector PQE30 after 16 hrs", "assay_type": "functional, organism-based", "details": "JM109, JM 109, 16 h"}, "[2]": {"system": "Escherichia coli", "test": "Ratio of EC50 for Escherichia coli JM109 transformed with empty vector PQE30 to EC50 for Escherichia coli JM109 transformed with Trichomonas vaginalis nim1", "assay_type": "functional"}, "[3]": {"system": "Entamoeba histolytica", "test": "Activity of Entamoeba histolytica NTR2 at 50 uM"}, "[4]": {"system": "Escherichia coli", "test": "Antimicrobial activity against Escherichia coli JM109 transformed with Trichomonas vaginalis nim1 after 16 hrs", "assay_type": "functional, organism-based", "details": "JM109, JM 109, 16 h"}, "[5]": {"system": "Trichomonas vaginalis", "test": "Activity of Trichomonas vaginalis NTR8 at 50 uM"}, "[6]": {"system": "Escherichia coli", "test": "Ratio of EC50 for Escherichia coli JM109 transformed with empty vector PQE30 to EC50 for Escherichia coli JM109 transformed with Entamoeba histolytica NTR1", "assay_type": "functional"}, "[7]": {"system": "Entamoeba histolytica", "test": "Activity of Entamoeba histolytica NIM1"}, "[8]": {"system": "Entamoeba histolytica", "test": "Activity of Entamoeba histolytica NTR3 at 50 uM"}, "[9]": {"system": "Escherichia coli", "test": "Ratio of EC50 for Escherichia coli JM109 transformed with empty vector PQE30 to EC50 for Escherichia coli JM109 transformed with Entamoeba histolytica nim1", "assay_type": "functional"}, "[10]": {"system": "Escherichia coli", "test": "Ratio of EC50 for Escherichia coli JM109 transformed with empty vector PQE30 to EC50 for Escherichia coli JM109 transformed with Entamoeba histolytica NTR2", "assay_type": "functional"}, "[11]": {"system": "Escherichia coli", "test": "Antimicrobial activity against Escherichia coli JM109 transformed with Entamoeba histolytica NTR1 after 16 hrs", "assay_type": "functional, organism-based", "details": "JM109, JM 109, 16 h"}, "[12]": {"system": "Giardia duodenalis", "test": "Activity of Giardia lamblia NTR at 50 uM"}, "[13]": {"system": "Escherichia coli", "test": "Antimicrobial activity against Escherichia coli JM109 transformed with Entamoeba histolytica NTR2 after 16 hrs", "assay_type": "functional, organism-based", "details": "JM109, JM 109, 16 h"}, "[14]": {"system": "Escherichia coli", "test": "Antimicrobial activity against Escherichia coli JM109 transformed with Entamoeba histolytica nim1 after 16 hrs", "assay_type": "functional, organism-based", "details": "JM109, JM 109, 16 h"}, "[15]": {"system": "Entamoeba histolytica", "test": "Activity of Entamoeba histolytica NTR1 at 50 uM"}},
  "data": [
    {"smiles": "Cc1ncc([N+](=O)[O-])n1CCO", "note": "[METRONIDAZOLE]", "values": [
      {"measurement": "EC50", "setting": "[1]", "result": 25, "unit": "µg/mL"},
      {"measurement": "Ratio EC50", "setting": "[2]", "result": 20},
      {"measurement": "Km", "setting": "[3]", "result": 0.081, "unit": "µM"},
      {"measurement": "Vmax", "setting": "[3]", "result": 0.031, "unit": "µmol/min"},
      {"measurement": "EC50", "setting": "[4]", "result": 500, "unit": "µg/mL"},
      {"measurement": "Km", "setting": "[5]", "result": 0.078, "unit": "µM"},
      {"measurement": "Vmax", "setting": "[5]", "result": 0.329, "unit": "µmol/min"},
      {"measurement": "Ratio EC50", "setting": "[6]", "result": 3},
      {"measurement": "Vmax", "setting": "[7]", "result": 0.057, "unit": "µmol/min"},
      {"measurement": "Km", "setting": "[8]", "result": 0.083, "unit": "µM"},
      {"measurement": "Vmax", "setting": "[8]", "result": 0.014, "unit": "µmol/min"},
      {"measurement": "Ratio EC50", "setting": "[9]", "result": 30},
      {"measurement": "Ratio EC50", "setting": "[10]", "result": 3},
      {"measurement": "EC50", "setting": "[11]", "result": 7, "unit": "µg/mL"},
      {"measurement": "Km", "setting": "[12]", "result": 0.206, "unit": "µM"},
      {"measurement": "Vmax", "setting": "[12]", "result": 0.347, "unit": "µmol/min"},
      {"measurement": "EC50", "setting": "[13]", "result": 8, "unit": "µg/mL"},
      {"measurement": "EC50", "setting": "[14]", "result": 750, "unit": "µg/mL"},
      {"measurement": "Km", "setting": "[15]", "result": 0.067, "unit": "µM"},
      {"measurement": "Vmax", "setting": "[15]", "result": 0.027, "unit": "µmol/min"}
    ]}
  ]
}
